The structures appear in SMILES notation.

What is called IC50 is the concentration needed to halve the response being measured.

For this experiment, the target named is T1, His-tagged recombinant human TrkA (Homo sapiens, UniProt P04629).
T1 construct: 6HIS tagged cytoplasmic domain from Invitrogen, Catalog No. PV3144; purchased Invitrogen PV3144
T1 sequence (P04629 440-796 limits assumed): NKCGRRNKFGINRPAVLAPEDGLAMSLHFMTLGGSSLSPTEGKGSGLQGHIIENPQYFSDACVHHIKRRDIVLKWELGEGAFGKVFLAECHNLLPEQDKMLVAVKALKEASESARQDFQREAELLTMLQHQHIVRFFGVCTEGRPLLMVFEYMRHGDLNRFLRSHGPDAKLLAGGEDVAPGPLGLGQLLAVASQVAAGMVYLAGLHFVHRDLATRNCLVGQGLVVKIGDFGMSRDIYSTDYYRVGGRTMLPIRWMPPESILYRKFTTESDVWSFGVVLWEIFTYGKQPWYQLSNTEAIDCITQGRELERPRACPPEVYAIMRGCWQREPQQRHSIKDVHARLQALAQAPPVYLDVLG
As to the kind of experiment: TrkA Kinase Binding Assay (LanthaScreen Eu). The settings on record: averaged IC50; TR-FRET binding, 60 min, 22° C.; read-out: TrkA Enzyme IC50. As to the method:
TrkA binding activity was determined in a TrkA LanthaScreen™ Eu Kinase Binding Assay. 5 nM His-tagged recombinant human TrkA (6HIS tagged cytoplasmic domain from Invitrogen, Catalog No. PV3144) was incubated with 4 nM Alexa-Fluor® Tracer 236 (Invitrogen Cat. No. PV5592), 2 nM biotinylated anti-His (Invitrogen Cat. No. PV6090), and 2 nM europium-labeled Streptavidin (Invitrogen Cat. No. PV5899), in buffer (25 mM MOPS, pH 7.5, 5 mM MgCl2, 0.005% Triton X-100). Three fold serial dilutions of compounds of the invention in DMSO were added to a final percentage of 2% DMSO. After 60-minute incubation at 22° C., the reaction was measured using the EnVision mutlimode plate reader (PerkinElmer) via TR-FRET dual wavelength detection at […]. The percent of control was calculated using a ratiometric emission factor. The IC50 values were determined by fitting a four parameter model to the percent of control data.
Table A provides averaged IC50 values for compounds of the invention when tested in the assay of Example A, where A represents an averaged IC50 value <100 nM; B represents an averaged IC50 value from 100 to 1,000 nM; and C represents an average 1050 value above 1000 nM.
In general terms: Time-resolved FRET reads energy transfer from a long-lived donor to a nearby acceptor.
Take `Cc1c(-c2cnn(C)c2)nn(-c2ccccc2)c1NC(=O)NCC1CCCc2ccccc21` (stereo not drawn) [Example 44, 1-(1′,4-dimethyl-1-phenyl-1H,1′H-3,4′-bipyrazol-5-yl)-3-((1,2,3,4-tetrahydronaphthalen-1-yl)methyl)urea]: the concentration for half-maximal inhibition (IC50) is less than 100 nM.

In the case of `O=C(Nc1c2c(nn1-c1ccccc1)CCC2)NC(Cc1ccccc1Cl)c1ccccc1` (stereo not drawn) [Example 45, 1-(2-(2-chlorophenyl)-1-phenylethyl)-3-(2-phenyl-2,4,5,6-tetrahydrocyclopenta[c]pyrazol-3-yl)urea], the IC50 is 100 to 1000 nM.

Take `O=C(Nc1c2c(nn1-c1ccccc1)CCC2)NC(Cc1ccccc1)Cc1ccccc1Cl` (stereo not drawn) [Example 46, 1-(1-(2-chlorophenyl)-3-phenylpropan-2-yl)-3-(2-phenyl-2,4,5,6-tetrahydrocyclopenta[c]pyrazol-3-yl)urea]: the IC50 was less than 100 nM. As to `O=C(Nc1c2c(nn1-c1ccccc1)CCC2)NC(Cc1ccccc1)Cc1ccc(F)c(F)c1` (stereo not drawn) [Example 47, 1-(1-(3,4-difluorophenyl)-3-phenylpropan-2-yl)-3-(2-phenyl-2,4,5,6-tetrahydrocyclopenta[c]pyrazol-3-yl)urea], the IC50 is less than 100 nM.

As for `COc1ccccc1CC(Cc1ccccc1)NC(=O)Nc1c2c(nn1-c1ccccc1)CCC2` (stereo not drawn) [Example 48, 1-(1-(2-methoxyphenyl)-3-phenylpropan-2-yl)-3-(2-phenyl-2,4,5,6-tetrahydrocyclopenta[c]pyrazol-3-yl)urea], the IC50 was in the range of 100 to 1000 nM. For `O=C(Nc1c2c(nn1-c1ccccc1)CCC2)NC(CCC(F)(F)F)Cc1ccccc1` (stereo not drawn) [Example 49, 1-(2-phenyl-2,4,5,6-tetrahydrocyclopenta[c]pyrazol-3-yl)-3-(5,5,5-trifluoro-1-phenylpentan-2-yl)urea], the IC50 was in the range of 100 to 1000 nM. Take `Cc1c(-c2cnn(C)c2)nn(-c2ccccc2)c1NC(=O)NCc1ccccc1-c1ccccc1` [Example 50, 1-([1,1′-biphenyl]-2-ylmethyl)-3-(1′,4-dimethyl-1-phenyl-1H,1′H-[3,4′-bipyrazol]-5-yl)urea]: the IC50 was 100 to 1000 nM. As to `COCc1ccc(OC(F)F)c(CNC(=O)Nc2c(C)c(-c3cncc(OC)c3)nn2-c2ccccc2)c1` [Example 52, 1-(2-(difluoromethoxy)-5-(methoxymethyl)benzyl)-3-(3-(5-methoxypyridin-3-yl)-4-methyl-1-phenyl-1H-pyrazol-5-yl)urea], the IC50 is less than 100 nM. Take `COCc1ccc(OC(F)(F)F)c(CNC(=O)Nc2c(C)c(-c3ccc(OC)nc3)nn2-c2ccccc2)c1` [Example 53, 1-(5-(methoxymethyl)-2-(trifluoromethoxy)benzyl)-3-(3-(6-methoxypyridin-3-yl)-4-methyl-1-phenyl-1H-pyrazol-5-yl)urea]: the IC50 was less than 100 nM.

As to `COCc1ccc(OC(F)(F)F)c(CNC(=O)Nc2c(C)c(-c3cncc(OC)c3)nn2-c2ccccc2)c1` [Example 54, 1-(5-(methoxymethyl)-2-(trifluoromethoxy)benzyl)-3-(3-(5-methoxypyridin-3-yl)-4-methyl-1-phenyl-1H-pyrazol-5-yl)urea], the IC50 was less than 100 nM. For `CNC(=O)c1nn(-c2ccccc2)c(NC(=O)NCc2cc(COC)ccc2OC(F)(F)F)c1C` [Example 55, 5-(3-(5-(methoxymethyl)-2-(trifluoromethoxy)benzyl)ureido)-N,4-dimethyl-1-phenyl-1H-pyrazole-3-carboxamide], the 50% inhibitory concentration (IC50) is less than 100 nM. For `CNC(=O)c1nn(-c2ccccc2)c(NC(=O)NCc2cc(COC)ccc2OC(F)F)c1C` [Example 56, 5-(3-(2-(difluoromethoxy)-5-(methoxymethyl)benzyl)ureido)-N,4-dimethyl-1-phenyl-1H-pyrazole-3-carboxamide], the IC50 was less than 100 nM. Consider `COCc1ccc(OC(F)(F)F)c(CNC(=O)Nc2c3c(nn2-c2ccccc2)CSC3)c1` [Example 57, 1-(5-(methoxymethyl)-2-(trifluoromethoxy)benzyl)-3-(2-phenyl-4,6-dihydro-2H-thieno[3,4-c]pyrazol-3-yl)urea], for which the IC50 is less than 100 nM.

`COCc1ccc(OC(F)(F)F)c(CNC(=O)Nc2c3c(nn2-c2ccccc2)CS(=O)(=O)C3)c1` [Example 58, 1-(5,5-dioxido-2-phenyl-4,6-dihydro-2H-thieno[3,4-c]pyrazol-3-yl)-3-(5-(methoxymethyl)-2-(trifluoromethoxy)benzyl)urea]: the IC50 was less than 100 nM. `COCc1ccc(OC(F)(F)F)c(CNC(=O)Nc2c(C)c(-c3cnc(OC)nc3)nn2-c2ccccc2)c1` [Example 59, 1-(5-(methoxymethyl)-2-(trifluoromethoxy)benzyl)-3-(3-(2-methoxypyrimidin-5-yl)-4-methyl-1-phenyl-1H-pyrazol-5-yl)urea]: the concentration for half-maximal inhibition (IC50) is less than 100 nM.

Take `COCc1ccc(OC(F)(F)F)c(CNC(=O)Nc2c(C)c(OCCF)nn2-c2ccccc2)c1` [Example 60, 1-(3-(2-fluoroethoxy)-4-methyl-1-phenyl-1H-pyrazol-5-yl)-3-(5-(methoxymethyl)-2-(trifluoromethoxy)benzyl)urea]: the half-maximal inhibitory concentration (IC50) is less than 100 nM. `COCc1ccc(OC(F)(F)F)c(CNC(=O)Nc2c(C)c(OCc3nnc(C)o3)nn2-c2ccccc2)c1` [Example 61]: the IC50 is less than 100 nM. Consider `COCc1ccc(OC(F)F)c(CNC(=O)Nc2c(C)c(-c3cnc(OC)nc3)nn2-c2ccccc2)c1` [Example 62, 1-(2-(difluoromethoxy)-5-(methoxymethyl)benzyl)-3-(3-(2-methoxypyrimidin-5-yl)-4-methyl-1-phenyl-1H-pyrazol-5-yl)urea], for which the IC50 is less than 100 nM. In the case of `COCc1ccc(OC(F)(F)F)c(CNC(=O)Nc2c(C)c(OCCO)nn2-c2ccccc2)c1` [Example 63, 1-(3-(2-hydroxyethoxy)-4-methyl-1-phenyl-1H-pyrazol-5-yl)-3-(5-(methoxymethyl)-2-(trifluoromethoxy)benzyl)urea], the IC50 is less than 100 nM.

Take `CNC(=O)c1nn(-c2ccccc2)c(NC(=O)NCc2cc(Br)ccc2OC(F)(F)F)c1C` [Example 64, 5-(3-(5-bromo-2-(trifluoromethoxy)benzyl)ureido)-N,4-dimethyl-1-phenyl-1H-pyrazole-3-carboxamide]: the concentration for half-maximal inhibition (IC50) is less than 100 nM. Turning to `COCc1ccc(OC(F)(F)F)c(CNC(=O)Nc2c(C)c(OC[C@H](O)CO)nn2-c2ccccc2)c1` [Example 65, (R)-1-(3-(2,3-dihydroxypropoxy)-4-methyl-1-phenyl-1H-pyrazol-5-yl)-3-(5-(methoxymethyl)-2-(trifluoromethoxy)benzyl)urea], the IC50 was less than 100 nM. For the molecule `COCc1ccc(OC(F)(F)F)c(CNC(=O)Nc2c(C)c(C3CCNCC3)nn2-c2ccccc2)c1` [Example 66, 1-(5-(methoxymethyl)-2-(trifluoromethoxy)benzyl)-3-(4-methyl-1-phenyl-3-(piperidin-4-yl)-1H-pyrazol-5-yl)urea], the IC50 is less than 100 nM. With `COCc1ccc(OC(F)(F)F)c(CNC(=O)Nc2c(C)c(OCC3CCNCC3)nn2-c2ccccc2)c1` [Example 67, 1-(5-(methoxymethyl)-2-(trifluoromethoxy)benzyl)-3-(4-methyl-1-phenyl-3-(piperidin-4-ylmethoxy)-1H-pyrazol-5-yl)urea], the 50% inhibitory concentration (IC50) was less than 100 nM. Then `CNC(=O)c1nn(-c2ccccc2)c(NC(=O)NCc2cc(COC)ccc2OCC(F)(F)F)c1C` [Example 68, 5-(3-(5-(methoxymethyl)-2-(2,2,2-trifluoroethoxy)benzyl)ureido)-N,4-dimethyl-1-phenyl-1H-pyrazole-3-carboxamide], with 100 to 1000 nM. With `COCc1ccc(OCC(F)(F)F)c(CNC(=O)Nc2c(C)c(-c3cnc(OC)nc3)nn2-c2ccccc2)c1` [Example 69, 1-(5-(methoxymethyl)-2-(2,2,2-trifluoroethoxy)benzyl)-3-(3-(2-methoxypyrimidin-5-yl)-4-methyl-1-phenyl-1H-pyrazol-5-yl)urea], the 50% inhibitory concentration (IC50) was less than 100 nM. Turning to `COCc1ccc(OC(F)(F)F)c(CNC(=O)Nc2c(C)c(OCC3(F)CCNCC3)nn2-c2ccccc2)c1` [Example 70, 1-(3-((4-fluoropiperidin-4-yl)methoxy)-4-methyl-1-phenyl-1H-pyrazol-5-yl)-3-(5-(methoxymethyl)-2-(trifluoromethoxy)benzyl)urea], the IC50 was less than 100 nM. As to `COCc1ccc(OC(F)(F)F)c(CNC(=O)Nc2c(C)c(OCC3CCNC3)nn2-c2ccccc2)c1` (stereo not drawn) [Example 71], the IC50 is less than 100 nM.

For `COCc1ccc(OC(F)(F)F)c(CNC(=O)Nc2c(C)c(OCC3CNC3)nn2-c2ccccc2)c1` [Example 72, 1-(3-(azetidin-3-ylmethoxy)-4-methyl-1-phenyl-1H-pyrazol-5-yl)-3-(5-(methoxymethyl)-2-(trifluoromethoxy)benzyl)urea], the IC50 was less than 100 nM. Take `COCc1ccc(OC(F)(F)F)c(CNC(=O)Nc2c(C)c(OCC3(F)CCNC3)nn2-c2ccccc2)c1` (stereo not drawn) [Example 73, 1-(3-((3-fluoropyrrolidin-3-yl)methoxy)-4-methyl-1-phenyl-1H-pyrazol-5-yl)-3-(5-(methoxymethyl)-2-(trifluoromethoxy)benzyl)urea]: the IC50 was less than 100 nM. For `COCc1ccc(OC(F)(F)F)c(CNC(=O)Nc2c(C)c(-c3cc(C)c(=O)n(C)c3)nn2-c2ccccc2)c1` [Example 74, 1-(3-(1,5-dimethyl-6-oxo-1,6-dihydropyridin-3-yl)-4-methyl-1-phenyl-1H-pyrazol-5-yl)-3-(5-(methoxymethyl)-2-(trifluoromethoxy)benzyl)urea], the concentration for half-maximal inhibition (IC50) was less than 100 nM.

Values taken from patent US9969694B2, “N-(arylalkyl)-N′-pyrazolyl-urea, thiourea, guanidine and cyanoguanidine compounds as TrkA kinase inhibitors” (Array BioPharma Inc., priority 2012, dated 2018).
